According to publication PMC7600788, “Sequence Permutation Generates Peptides with Different Antimicrobial and Antibiofilm Activities” (Pharmaceuticals, 2020):
No end group written: not given here.

Legend:
P. aeruginosa PAO1 = format: cell-based, Pseudomonas aeruginosa; conditions: PAO1
Experimental: (§1) The antimicrobial activity spectrum of the WW peptide series was performed on a panel of Gram-positive and -negative bacteria using the standard broth micro-dilution method with minor modifications as described. […] There was a small change in the case of Pseudomonas aeruginosa and Acinetobacter baumannii up to two-fold. Four-fold changes were found for Staphylococcus aureus, Staphylococcus epidermidis, Escherichia coli, and Bacillus subtilis. However, we observed over eight-fold MIC changes for Klebsiella pneumoniae and vancomycin-resistant enterococcus (VRE). […] We also observed more than eight-fold changes in minimal bacterial killing concentrations.
(§2) The antibacterial activity of peptides was evaluated using a standard broth microdilution protocol with minor modifications as previously described. In brief, logarithmic phase bacterial cultures (i.e., optical density at 600 nm ≈ 0.5) were diluted to OD600~0.001 and partitioned into a 96-well polystyrene microplate at 90 μL per well. After treatment with 10 μL of peptide solutions two-fold diluted to various concentrations, microplates were incubated at 37 °C overnight and read on a ChroMate 4300 Microplate Reader at 630 nm (GMI, Ramsey, MN). […] Minimal bactericidal concentration (MBC) was determined by plating the clear wells at MIC or above. The peptide concentration that caused no bacterial growth on the petri dish is MBC.

S. aureus USA300 LAC = assay: Inhibition of biofilm attachment (XTT); format: cell-based, Staphylococcus aureus; conditions: concentration series, Figure 6A
Excerpt: Antimicrobial effects of the peptides are different on diverse forms of bacteria. The free and motile forms cultivated in laboratories are the planktonic bacteria onto which the peptides and antibiotics can have direct effects. However, the activity of the microbicides can be reduced to the biofilm forms where bacteria are less exposed and hidden inside the shield. The development of the biofilms starts with the attachment of the individual cells on the substratum followed by biofilm growth and maturation into more solid biomass. We tested the ability of WW295 and WW298 in fighting the biofilms of S. aureus USA300 LAC at the two stages. […] These 96-well commercial plates were pre-treated commercially with tissue culture to enhance cell adhesion.
This experiment was performed to measure the ability of the peptide to inhibit bacterial attachment, the initial step for biofilm formation. In short, an overnight culture of S. aureus USA300 was grown in TSB media to an optical density (600 nm) of ∼1.0. […] Live cells in the biofilms were then quantitated using XTT [2,3-bis(2-methyloxy-4-nitro-5-sulfophenyl)-2H-tertazolium-5-carboxanilide] assay by following the manufacturer’s instructions with modifications. […] Absorbance at 450 nm (only media with XTT containing wells served as the blank) was obtained using a Chromate^TM microtiter plate reader. […]

[1] = HPLC retention time measurement (reverse-phase C18); format: physicochemical
Experimental: The retention time of the peptide was measured on a Waters HPLC system equipped with an analytical reverse-phase WATERS C18 column (4.6 × 250 mm). The peptide detected at 220 and 280 nm was eluted with a gradient of acetonitrile (containing 1% TFA) from 5% to 95% at a flow rate of 1 mL/min [22].

A. baumannii B28-16 = format: cell-based, Acinetobacter baumannii; conditions: B28-16
Experimental: as §1, §2

B. subtilis 167 = format: cell-based, Bacillus subtilis; conditions: 167
Experimental: as §1, §2

human red blood cells = assay: Hemolytic assay; format: cell-based; conditions: red cells of human
Experimental: (§3) Hemolytic assays of peptides were performed as previously described. Briefly, human red blood cells (hRBCs) obtained from UNMC Blood Bank, or chicken or porcine blood cells purchased from commercial sources as previously described, were washed three times with phosphate buffer saline (PBS) and diluted to a 2% solution (V/v). After peptide treatment, incubation at 37 °C for one hour, and centrifugation at 13,000 rpm, aliquots of the supernatant were carefully transferred to a fresh 96-well microplate. The amount of hemoglobin released was measured at 545 nm. The percent lysis was calculated by assuming 100% release when human blood cells were treated with 2% Triton X-100, and 0% release when incubated with PBS buffer. The peptide concentration that caused 50% lysis of hRBCs is defined as HC50.

Pig RBC = assay: Hemolytic assay; format: cell-based
Experimental: as §3

chicken red blood cells = assay: Hemolytic assay; format: cell-based
Experimental: as §3

E. coli K12 = format: cell-based, Escherichia coli; conditions: K12
Experimental: as §1, §2

## RKIWWWWL [WW295]
P. aeruginosa PAO1
  Minimal Inhibitory Concentration (MIC), PA: 25 to 50 µM
S. aureus USA300 LAC
  effect on surface adherence of MRSA (in words): did not show any effects
[1]; reverse-phase HPLC C18
  hydrophobicity implied by retention time (in words): slightly higher hydrophobicity
[1]; reverse-phase Waters C18 4.6 × 250 mm, acetonitrile (1% TFA) gradient 5% to 95%, 1 mL/min, detection 220 and 280 nm, taken as measure of hydrophobicity
  HPLC (tr, min): 12.453 min
A. baumannii B28-16
  Minimal Inhibitory Concentration (MIC), AB: 6.25 to 12.5 µM
B. subtilis 167
  Minimal Inhibitory Concentration (MIC), BS: 12.5 µM
Human red blood cells
  Human RBC, concentration that caused 50% red blood cell lysis (HC50): 57 µM
Pig RBC
  Pig RBC, concentration that caused 50% red blood cell lysis (HC50): >100 µM
Chicken red blood cells
  Chicken RBC, concentration that caused 50% red blood cell lysis (HC50): 100 µM
E. coli K12
  Minimal Inhibitory Concentration (MIC), EC: 6.2 µM
